# Values quoted from earlier work as cited in patent US9006451B1, “2-anilinonicotinyl based chalcones useful as potential anticancer agents and process for preparation thereof” (Council of Scientific and Industrial Research, priority 2013, dated 2015).
# Test system: breast cancer cell line MCF7
# Conditions: cited from earlier work
smiles,measurement,setting,value
"COc1ccc(C(=O)/C=C/c2c(OC)cccc2OC)c(OC)c1 [B, (E)-1-(2,4-dimethoxyphenyl)-3-(2,6-dimethoxyphenyl)prop-2-en-1-one]",IC50,"J. Med. Chem. 2008, 51, 2307-2310, read-out: IC50 against breast cancer cell line MCF7",75 µM
same,GI50,"known chalcone, literature value",75 µM
